From PMC12775802, “Dual targeting of AMRC12 and Malassezia globosa disrupts MYC liquid condensates-driven nuclear pore complex biogenesis in neuroblastoma” (Theranostics, 2026)

Target: ARMC12 (Homo sapiens, UniProt Q5T9G4)
Conditions: recombinant wild-type protein; 20 uM (Figure 4F legend; b48 prints 20 mM); 4 °C, 2 h; compound covalently conjugated to beads; site at R320

ARMC12, sequence (Q5T9G4 1-367 isoform Q5T9G4-2): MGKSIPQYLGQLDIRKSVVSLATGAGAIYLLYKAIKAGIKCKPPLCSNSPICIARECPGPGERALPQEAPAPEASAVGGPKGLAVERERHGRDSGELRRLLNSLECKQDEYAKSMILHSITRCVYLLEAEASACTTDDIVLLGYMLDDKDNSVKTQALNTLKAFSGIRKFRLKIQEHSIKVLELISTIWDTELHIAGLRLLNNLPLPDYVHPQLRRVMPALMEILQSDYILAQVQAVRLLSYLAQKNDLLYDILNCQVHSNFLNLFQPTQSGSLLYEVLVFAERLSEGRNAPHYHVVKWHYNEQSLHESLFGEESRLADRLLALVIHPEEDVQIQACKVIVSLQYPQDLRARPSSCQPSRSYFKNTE

SMILES: Clc1ccc(C(Cn2ccnc2)OCc2ccsc2Cl)c(Cl)c1 (stereo not shown) [TCZ, tioconazole]
- affinity purification on compound-conjugated NHS beads, western blot: TCZ directly interacted with recombinant wild-type ARMC12 protein rather than its mutant
